Measured values as given in patent US20260159497A1, “SOLID FORMS OF A COMPLEMENT FACTOR B INHIBITOR” (Novartis Pharma AG, priority 2022, published 2026).
≈ marks a conversion by molar mass, not a printed value. Read-outs that look alike come from different tables or passages of the source.

Assays:
[1] = Intrinsic dissolution rate; type: physicochemical
[2] = Stability of Forms A and B under stress conditions (temperature/humidity, capsules, light)
[3] = Dynamic vapor sorption (DVS) mass change; type: physicochemical; conditions: for Mass change by DVS, Desorption (%) / Mass change by DVS, Sorption (%): Table 5, 25 degree C., based on dry weight
From the text: [table] The mass change by DVS isotherm (2 cycles 40-0-95-0-40% RH) are in the tables below. The mass change is based on the dry weight of each.

[4] = Compression stability (XRPD after compression); type: physicochemical; conditions: 4 tons of compression for 5 min
From the text: Method: […] Afterwards, characterize the sample by XRPD to detect any change in the solid state.

[5] = Grinding and wet granulation; type: physicochemical
From the text: Method: Granulate was obtained in solid-state forms. […] Dry the wet-cake under vacuum or at atmospheric pressure. Evaluate solid form and degree of crystallinity by e.g. XRPD and/or DSC.

[6] = Solubility in water and biorelevant buffers at 25° C.; type: physicochemical; conditions: 25° C., 24 h; for solubility at 24 h: thermodynamic from solid, read-out: Solubility (mg/mL) S
Experimental: Purchase sodium taurocholate (NaTC) from supplier. Account for assay. Add amount corresponding to 3 mM to PBS V1. Stir until dissolved. Equilibrate 1 h at 25° C. or 37° C. before use. Dispose after 48 h.
Purchase FaSSIF-V2 from supplier (biorelevant.com). Amount added to PBS-V1 according to Table 1. Stir until dissolved. Equilibrate 1 h at 25° C. or 37° C. before use. Dispose after 48 h.
Purchase FeSSIF-V2 from supplier (biorelevant.com). Amount added to PBS-V1 according to Table 1. Stir until dissolved. Equilibrate 1 h at 25° C. or 37° C. before use. Dispose after 48 h.

[7] = Water content by Karl Fischer titration; type: physicochemical; conditions: ambient conditions; relative to total weight of the salt / free form
[8] = Solubility in Simulated Fluids at 37° C.; type: physicochemical; conditions: for solubility at 30 min / solubility at 24 h: 37 °C, thermodynamic from solid; for solubility at 30 min: read-out: Solubility (mg/mL) 30 min; for solubility at 24 h: read-out: Solubility (mg/mL) 24 h
From the text: Solubility data of Form A (S)-4-(2,2-difluoro-7-((5-methoxy-7-methyl-1H-indol-4-yl)methyl)-7-azaspiro[3.5]nonan-6-yl)benzoic acid, Form B (S)-4-(2,2-difluoro-7-((5-methoxy-7-methyl-1H-indol-4-yl)methyl)-7-azaspiro[3.5]nonan-6-yl)benzoic acid p-toluene sulfonic acid salt, Form C (S)-4-(2,2-difluoro-7-((5-methoxy-7-methyl-1H-indol-4-yl)methyl)-7-azaspiro[3.5]nonan-6-yl)benzoic acid p-toluene sulfonic acid salt, and Form D (S)-4-(2,2-difluoro-7-((5-methoxy-7-methyl-1H-indol-4-yl)methyl)-7-azaspiro[3.5]nonan-6-yl)benzoic acid hydrochloride salt in Simulated Fluids at 37° C.

[9] = pH 2.0, 0.01 M HCl, 37° C., 100 rpm, 120 min
[10] = pH 6.5, phosphate buffer 50 mM (PBS-V1), 37° C., 100 rpm, 120 min

For COc1cc(C)c2[nH]ccc2c1CN1CCC2(C[C@H]1c1ccc(C(=O)O)cc1)CC(F)(F)C2 [Form A, (S)-4-(2,2-difluoro-7-((5-methoxy-7-methyl-1H-indol-4-yl)methyl)-7-azaspiro[3.5]nonan-6-yl)benzoic acid], the intrinsic dissolution rate ([1]; PBS-V1 (pH 6.5)) was 0.0028 mg/min/cm^2, the intrinsic dissolution rate ([1]; pH 2.0, 0.01 M HCl) was 0.081 mg/min/cm^2 and the “form change after intrinsic dissolution” value [1, 9] was “(No form change)”. For the same molecule, the intrinsic dissolution rate [1, 9] was 0.081 mg · min^−1 · cm^−2, the “form change after intrinsic dissolution” value [1, 10] was “(No form change)” and the intrinsic dissolution rate [1, 10] was 0.0028 mg · min^−1 · cm^−2. The “stability in HPMC and HGC capsules” value ([2]; 50° C. with 11% and 75% RH for 2 weeks) was “chemically and physically stable”, the “degradation under light stress” value ([2]; 1200 kLux light stress) was “about 0.9%” and the “form change by XRPD after humidity exposure” value ([2]; exposed to 80% or 92% RH for 24 hrs) was “no change”. The “chemical stability in bulk state” value ([2]; stored at 50° C. with 11% RH or 75% RH for 1 week) was “chemically stable”, the “discoloration in bulk state” value ([2]; stored at 80° C. with 11% RH or 75% RH) was “slight to medium discoloration” and the “polymorphic form in the stress conditions” value ([2]; temperature/humidity and light stress conditions) was “unchanged”. The “moisture absorbed by DVS (absorbs up to)” value ([3]; 95% RH at 25° C.) was “up to 0.45%”, the “Mass change by DVS, Desorption (%)” value ([3]; 0% RH) was −0.01% and the “Mass change by DVS, Sorption (%)” value ([3]; 0% RH) was 0.00%. The “Mass change by DVS, Desorption (%)” value ([3]; 10% RH) was 0.06%, the “Mass change by DVS, Sorption (%)” value ([3]; 10% RH) was 0.04% and the “Mass change by DVS, Desorption (%)” value ([3]; 20% RH) was 0.12%. The “Mass change by DVS, Sorption (%)” value ([3]; 20% RH) was 0.08%, the “Mass change by DVS, Desorption (%)” value ([3]; 30% RH) was 0.17% and the “Mass change by DVS, Sorption (%)” value ([3]; 30% RH) was 0.13%. For the same molecule, the “Mass change by DVS, Desorption (%)” value ([3]; 40% RH) was 0.22%, the “Mass change by DVS, Sorption (%)” value ([3]; 40% RH) was 0.17% and the “Mass change by DVS, Desorption (%)” value ([3]; 50% RH) was 0.26%. The “Mass change by DVS, Sorption (%)” value ([3]; 50% RH) was 0.22%, the “Mass change by DVS, Desorption (%)” value ([3]; 60% RH) was 0.32% and the “Mass change by DVS, Sorption (%)” value ([3]; 60% RH) was 0.26%. The “Mass change by DVS, Desorption (%)” value ([3]; 70% RH) was 0.35%, the “Mass change by DVS, Sorption (%)” value ([3]; 70% RH) was 0.30% and the “Mass change by DVS, Desorption (%)” value ([3]; 80% RH) was 0.38%. For the same molecule, the “Mass change by DVS, Sorption (%)” value ([3]; 80% RH) was 0.35%, the “Mass change by DVS, Desorption (%)” value ([3]; 90% RH) was 0.42% and the “Mass change by DVS, Sorption (%)” value ([3]; 90% RH) was 0.40%. For the same molecule, the “Mass change by DVS, Desorption (%)” value ([3]; 95% RH) was 0.45%, the “Mass change by DVS, Sorption (%)” value ([3]; 95% RH) was 0.45% and the “form change in XRPD after compression” value [4] was “no form change”. The “crystallinity from XRPD pattern after grinding” value ([5]; after grinding) was “crystallinity decrease”, the “form change after grinding and wet granulation” value ([5]; dry grinding (2 min and 5 min) and wet granulation (water and ethanol)) was “did not lead to any form change” and the “pH of solubility sample (pH)” value ([6]; FaSSGF, pH 1.6) was 1.68. The “pH of solubility sample (pH)” value ([6]; PBS-V1 + 3 mM NaTC, pH 6.5) was 6.51, the “pH of solubility sample (pH)” value ([6]; PBS-V1 + 0.3 FeSSIF-V2, pH 6.5) was 6.52 and the “pH of solubility sample (pH)” value ([6]; PBS-V1 + 2.0 FeSSIF-V2, pH 6.5) was 6.73. For the same molecule, the “pH of solubility sample (pH)” value ([6]; PBS-V1 + FaSSIF-V2, pH 6.5) was 6.69, the “pH of solubility sample (pH)” value ([6]; PBS-V1 + FeSSIF-V2, pH 6.5) was 6.74 and the solubility at 24 h ([6]; fassgf or other biorelevant, FaSSGF, pH 1.6) was greater than 2 mg/mL. For the same molecule, the solubility at 24 h ([6]; fassgf or other biorelevant, PBS-V1 + 3 mM NaTC, pH 6.5) was 0.068 mg/mL, the solubility at 24 h ([6]; fassgf or other biorelevant, PBS-V1 + 0.3 FeSSIF-V2, pH 6.5) was 0.074 mg/mL and the solubility at 24 h ([6]; fassgf or other biorelevant, PBS-V1 + 2.0 FeSSIF-V2, pH 6.5) was 0.12 mg/mL. The solubility at 24 h ([6]; PBS-V1 + FaSSIF-V2, pH 6.5) was 0.072 mg/mL, the solubility at 24 h ([6]; PBS-V1 + FeSSIF-V2, pH 6.5) was 0.094 mg/mL and the solubility at 24 h ([6]; water) was 0.052 mg/mL (≈ 114 µM). The “pH of solubility sample (pH)” value ([6]; water) was 7.40, the “water content by Karl Fischer titration” value [7] was 0.15 % w/w and the solubility at 30 min ([8]; fassgf or other biorelevant, FaSSGF, 30 min) was 2.28 mg/mL (≈ 5020 µM). The solubility at 24 h ([8]; fassgf or other biorelevant, FaSSGF, 24 h) was greater than 2 mg/mL, the solubility at 30 min ([8]; fassif, FaSSIF, 30 min) was 0.24 mg/mL (≈ 528 µM) and the solubility at 24 h ([8]; fassif, FaSSIF, 24 h) was 0.18 mg/mL (≈ 396 µM). The solubility at 30 min ([8]; fessif, FeSSIF, 30 min) was 0.31 mg/mL (≈ 682 µM), the solubility at 24 h ([8]; fessif, FeSSIF, 24 h) was 0.31 mg/mL (≈ 682 µM) and the solubility at 30 min ([8]; pH 7, water, Water, initial pH 7.00, 30 min) was 0.21 mg/mL (≈ 462 µM). The solubility at 24 h ([8]; pH 7, water, Water, initial pH 7.00, 24 h) was 0.22 mg/mL (≈ 484 µM), the “pH at 24 h” value ([8]; FaSSGF) was 1.61 and the “pH at 24 h” value ([8]; FaSSIF) was 6.48. For the same molecule, the “pH at 24 h” value ([8]; FeSSIF) was 5.00 and the “pH at 24 h” value ([8]; Water, initial pH 7.00) was 7.12.
